Consider one compound from PMC10856618, “Research on the Interaction Mechanism and Structural Changes in Human Serum Albumin with Hispidin Using Spectroscopy and Molecular Docking” (Molecules, 2024).

Structures are written as SMILES.

In the test the target is T1, human serum albumin (HSA) (Homo sapiens, UniProt P02768).
T1 construct: gene ALB; commercial HSA (Solarbio), mature plasma protein, 585 residues, 66,500 Da
As to the kind of experiment: intrinsic fluorescence quenching titration (ex […] nm). The format is binding. The conditions noted are these: 298 K, pH 7.4 Tris-HCl, 0.1 mol/L NaCl, 5 µmol/L HSA; n = 1.04; double-log; mainly site I (subdomain IIA).

T1 sequence (P02768 25-609): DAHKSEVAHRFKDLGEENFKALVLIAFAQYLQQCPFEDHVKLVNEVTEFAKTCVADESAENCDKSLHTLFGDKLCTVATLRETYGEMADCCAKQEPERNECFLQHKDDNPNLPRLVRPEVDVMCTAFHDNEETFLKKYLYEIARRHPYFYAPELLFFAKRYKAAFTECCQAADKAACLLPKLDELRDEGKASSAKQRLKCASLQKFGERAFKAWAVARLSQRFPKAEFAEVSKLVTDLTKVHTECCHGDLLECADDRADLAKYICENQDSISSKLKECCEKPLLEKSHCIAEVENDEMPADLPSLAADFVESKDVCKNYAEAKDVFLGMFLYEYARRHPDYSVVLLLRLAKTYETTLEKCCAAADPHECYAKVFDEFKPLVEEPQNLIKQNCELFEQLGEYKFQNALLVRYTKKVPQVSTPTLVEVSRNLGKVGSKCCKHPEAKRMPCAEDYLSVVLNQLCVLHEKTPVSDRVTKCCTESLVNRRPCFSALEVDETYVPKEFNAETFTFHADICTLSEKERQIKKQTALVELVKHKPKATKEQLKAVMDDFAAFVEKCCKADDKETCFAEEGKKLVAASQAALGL

Take `O=c1cc(O)cc(/C=C/c2ccc(O)c(O)c2)o1` [hispidin]: the “Ka (10^5 L/mol)” value was 1.03 × 10^5 L/mol.
